Assay results reported in patent publication US9527867B2, “Antibacterial biaromatic derivatives” (Actelion Pharmaceuticals Ltd., priority 2013, dated 2016).
In brackets after ≈: the same amount, converted by molar mass.

Columns and labels:
Test in all cases: Bacterial growth minimal inhibitory concentration (broth microdilution, CLSI M7-A7)
Assay type in all cases: cell-based
[1] = system: Enterococcus faecium A949; settings: Enterococcus faecium, A949, cation-adjusted Mueller-Hinton Broth, multiply-resistant strain (in particular quinolone-resistant), read-out: MIC for E. faecium A949
How it was run: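 Broth microdilution after CLSI M7-A7 in cation-adjusted Mueller-Hinton medium gave MIC values in mg/L.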

[2] = system: Staphylococcus aureus A798; settings: Staphylococcus aureus, A798, cation-adjusted Mueller-Hinton Broth, multiply-resistant strain (in particular quinolone-resistant), read-out: MIC for S. aureus A798
How it was run: (§1)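 MICs (mg/L) by broth microdilution in cation-adjusted Mueller-Hinton Broth per CLSI M7-A7. A798 and T6474 are multiply resistant (quinolone-resistant) strains; A894 is quinolone-sensitive; ATCC29213 is methicillin- and quinolone-sensitive.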

[3] = system: Moraxella catarrhalis A894; settings: Moraxella catarrhalis, A894, cation-adjusted Mueller-Hinton Broth, quinolone-sensitive strain
How it was run: as §1

[4] = system: Staphylococcus aureus ATCC29213; settings: Staphylococcus aureus, ATCC29213, cation-adjusted Mueller-Hinton Broth, methicillin-sensitive and quinolone-sensitive strain, read-out: MIC for S. aureus ATCC29213
How it was run: as §1

[5] = system: Acinetobacter baumannii T6474; settings: Acinetobacter baumannii, T6474, cation-adjusted Mueller-Hinton Broth, multiply-resistant strain (in particular quinolone-resistant)
How it was run: as §1

Row | Structure (SMILES) | MIC [1] | MIC [2] | MIC [3] | MIC [4] | MIC [5]
1 | O=C1COc2ccc(N3C[C@H](CCNCc4cccc(-c5cccc(OCCCO)c5)c4)OC3=O)nc2N1 [Example 53, 6-[(S)-5-(2-{[3′-(3-hydroxy-propoxy)-biphenyl-3-ylmethyl]-amino}-ethyl)-2-oxo-oxazolidin-3-yl]-4H-pyrido[3,2-b][1,4]oxazin-3-one] | 16 µg/mL (≈ 30.9 µM) | 1 µg/mL (≈ 1.93 µM) | 0.125 µg/mL (≈ 0.241 µM) | 2 µg/mL (≈ 3.86 µM) | 4 µg/mL (≈ 7.71 µM)
2 | COCCOc1cccc(-c2cccc(CNCC[C@H]3CN(c4ccc5c(n4)NC(=O)CO5)C(=O)O3)c2)c1 [Example 54, 6-[(S)-5-(2-{[3′-(2-methoxy-ethoxy)-biphenyl-3-ylmethyl]-amino}-ethyl)-2-oxo-oxazolidin-3-yl]-4H-pyrido[3,2-b][1,4]oxazin-3-one] | 16 µg/mL (≈ 30.9 µM) | 2 µg/mL (≈ 3.86 µM) | 0.125 µg/mL (≈ 0.241 µM) | 2 µg/mL (≈ 3.86 µM) | 8 µg/mL (≈ 15.4 µM)
3 | COc1cc(-c2cccc(CNCC[C@H]3CN(c4ccc5c(n4)NC(=O)CO5)C(=O)O3)c2)ccn1 [Example 55, 6-((S)-5-{2-[3-(2-methoxy-pyridin-4-yl)-benzylamino]-ethyl}-2-oxo-oxazolidin-3-yl)-4H-pyrido[3,2-b][1,4]oxazin-3-one] | > 8 µg/mL | 2 µg/mL (≈ 4.21 µM) | 0.031 µg/mL (≈ 0.0652 µM) | 2 µg/mL (≈ 4.21 µM) | 1 µg/mL (≈ 2.1 µM)
4 | N#Cc1cccc(-c2cccc(CNCCc3nn(-c4ccc5c(n4)NC(=O)CO5)c(=O)o3)c2)c1 [Example 56, 3′-({2-[5-oxo-4-(3-oxo-3,4-dihydro-2H-pyrido[3,2-b][1,4]oxazin-6-yl)-4,5-dihydro-[1,3,4]oxadiazol-2-yl]-ethylamino}-methyl)-biphenyl-3-carbonitrile] | 4 µg/mL (≈ 8.54 µM) | 2 µg/mL (≈ 4.27 µM) | ≤ 0.016 µg/mL | 0.5 µg/mL (≈ 1.07 µM) | 1 µg/mL (≈ 2.13 µM)
5 | O=C1COc2ccc(N3C[C@H](CCNCc4cccc(-c5cccc(OCC6CC6)c5)c4)OC3=O)nc2N1 [Example 58, 6-((S)-5-{2-[(3′-cyclopropylmethoxy-biphenyl-3-ylmethyl)-amino]-ethyl}-2-oxo-oxazolidin-3-yl)-4H-pyrido[3,2-b][1,4]oxazin-3-one] | 8 µg/mL (≈ 15.5 µM) | 1 µg/mL (≈ 1.94 µM) | 0.125 µg/mL (≈ 0.243 µM) | 2 µg/mL (≈ 3.89 µM) | 8 µg/mL (≈ 15.5 µM)
6 | COc1cc(-c2cccc(CNCC[C@H]3CN(c4ccc5c(n4)NC(=O)CO5)C(=O)O3)c2)cnn1 [Example 59, 6-((S)-5-{2-[3-(6-methoxy-pyridazin-4-yl)-benzylamino]-ethyl}-2-oxo-oxazolidin-3-yl)-4H-pyrido[3,2-b][1,4]oxazin-3-one] | > 8 µg/mL | 4 µg/mL (≈ 8.39 µM) | 0.125 µg/mL (≈ 0.262 µM) | 2 µg/mL (≈ 4.2 µM) | 2 µg/mL (≈ 4.2 µM)
7 | N#Cc1cc(-c2cccc(CNCC[C@H]3CN(c4ccc5c(n4)NC(=O)CO5)C(=O)O3)c2)cnn1 [Example 60, 5-[3-({2-[(S)-2-oxo-3-(3-oxo-3,4-dihydro-2H-pyrido[3,2-b][1,4]oxazin-6-yl)-oxazolidin-5-yl]-ethylamino}-methyl)-phenyl]-pyridazine-3-carbonitrile] | > 8 µg/mL | 4 µg/mL (≈ 8.48 µM) | 0.063 µg/mL (≈ 0.134 µM) | 2 µg/mL (≈ 4.24 µM) | 1 µg/mL (≈ 2.12 µM)
8 | N#Cc1cccc(-c2cccc(CNCCc3nn(-c4ccc5c(n4)NC(=O)CO5)c(=O)o3)c2O)n1 [Example 61, 6-[2-hydroxy-3-({2-[5-oxo-4-(3-oxo-3,4-dihydro-2H-pyrido[3,2-b][1,4]oxazin-6-yl)-4,5-dihydro-[1,3,4]oxadiazol-2-yl]-ethylamino}-methyl)-phenyl]-pyridine-2-carbonitrile] | 2 µg/mL (≈ 4.12 µM) | 0.5 µg/mL (≈ 1.03 µM) | ≤ 0.016 µg/mL | 0.25 µg/mL (≈ 0.515 µM) | 0.5 µg/mL (≈ 1.03 µM)
9 | N#Cc1cccnc1-c1cccc(CNCC[C@H]2CN(c3ccc4c(n3)NC(=O)CO4)C(=O)O2)c1 [Example 62, 2-[3-({2-[(S)-2-oxo-3-(3-oxo-3,4-dihydro-2H-pyrido[3,2-b][1,4]oxazin-6-yl)-oxazolidin-5-yl]-ethylamino}-methyl)-phenyl]-nicotinonitrile] | 16 µg/mL (≈ 34 µM) | 2 µg/mL (≈ 4.25 µM) | ≤ 0.063 µg/mL | 1 µg/mL (≈ 2.13 µM) | 1 µg/mL (≈ 2.13 µM)
10 | O=C1COc2ccc(N3C[C@H](CCNCc4cccc(-c5cccc(O)c5)c4)OC3=O)nc2N1 [Example 63, 6-((S)-5-{2-[(3′-hydroxy-biphenyl-3-ylmethyl)-amino]-ethyl}-2-oxo-oxazolidin-3-yl)-4H-pyrido[3,2-b][1,4]oxazin-3-one] | 16 µg/mL (≈ 34.7 µM) | 1 µg/mL (≈ 2.17 µM) | ≤ 0.063 µg/mL | 1 µg/mL (≈ 2.17 µM) | 0.5 µg/mL (≈ 1.09 µM)
11 | COc1ccc(OC)c(-c2cccc(CNCC[C@H]3CN(c4ccc5c(n4)NC(=O)CO5)C(=O)O3)c2)c1 [Example 64, 6-((S)-5-{2-[(2′,5′-dimethoxy-biphenyl-3-ylmethyl)-amino]-ethyl}-2-oxo-oxazolidin-3-yl)-4H-pyrido[3,2-b][1,4]oxazin-3-one] | 16 µg/mL (≈ 31.7 µM) | 2 µg/mL (≈ 3.96 µM) | ≤ 0.063 µg/mL | 1 µg/mL (≈ 1.98 µM) | 16 µg/mL (≈ 31.7 µM)
12 | N#CCOc1cccc(-c2cccc(CNCC[C@H]3CN(c4ccc5c(n4)NC(=O)CO5)C(=O)O3)c2)c1 [Example 65, [3′-({2-[(S)-2-oxo-3-(3-oxo-3,4-dihydro-2H-pyrido[3,2-b][1,4]oxazin-6-yl)-oxazolidin-5-yl]-ethylamino}-methyl)-biphenyl-3-yloxy]-acetonitrile] | 16 µg/mL (≈ 32 µM) | 1 µg/mL (≈ 2 µM) | ≤ 0.063 µg/mL | 1 µg/mL (≈ 2 µM) | 2 µg/mL (≈ 4 µM)
13 | N#Cc1ccc(-c2cccc(CNCC[C@H]3CN(c4ccc5c(n4)NC(=O)CO5)C(=O)O3)c2)cc1 [Example 66, 3′-({2-[(S)-2-oxo-3-(3-oxo-3,4-dihydro-2H-pyrido[3,2-b][1,4]oxazin-6-yl)-oxazolidin-5-yl]-ethylamino}-methyl)-biphenyl-4-carbonitrile] | 16 µg/mL (≈ 34.1 µM) | 2 µg/mL (≈ 4.26 µM) | ≤ 0.063 µg/mL | 1 µg/mL (≈ 2.13 µM) | 2 µg/mL (≈ 4.26 µM)
14 | O=C1COc2ccc(N3C[C@H](CCNCc4cccc(-c5cccc(OCCCCO)c5)c4)OC3=O)nc2N1 [Example 67, 6-[(S)-5-(2-{[3′-(4-hydroxy-butoxy)-biphenyl-3-ylmethyl]-amino}-ethyl)-2-oxo-oxazolidin-3-yl]-4H-pyrido[3,2-b][1,4]oxazin-3-one] | 8 µg/mL (≈ 15 µM) | 0.5 µg/mL (≈ 0.939 µM) | 0.063 µg/mL (≈ 0.118 µM) | 1 µg/mL (≈ 1.88 µM) | 2 µg/mL (≈ 3.76 µM)
15 | CCOC(=O)COc1cccc(-c2cccc(CNCC[C@H]3CN(c4ccc5c(n4)NC(=O)CO5)C(=O)O3)c2)c1 [Example 68, [3′-({2-[(S)-2-oxo-3-(3-oxo-3,4-dihydro-2H-pyrido[3,2-b][1,4]oxazin-6-yl)-oxazolidin-5-yl]-ethylamino}-methyl)-biphenyl-3-yloxy]-acetic acid ethyl ester] | > 8 µg/mL | 1 µg/mL (≈ 1.83 µM) | 0.125 µg/mL (≈ 0.229 µM) | 1 µg/mL (≈ 1.83 µM) | 8 µg/mL (≈ 14.6 µM)
16 | CCOc1cccc(-c2cccc(CNCC[C@H]3CN(c4ccc5c(n4)NC(=O)CO5)C(=O)O3)c2)c1 [Example 70, 6-((S)-5-{2-[(3′-ethoxy-biphenyl-3-ylmethyl)-amino]-ethyl}-2-oxo-oxazolidin-3-yl)-4H-pyrido[3,2-b][1,4]oxazin-3-one] | 8 µg/mL (≈ 16.4 µM) | 0.5 µg/mL (≈ 1.02 µM) | 0.063 µg/mL (≈ 0.129 µM) | 1 µg/mL (≈ 2.05 µM) | 2 µg/mL (≈ 4.09 µM)
17 | N#CC1(COc2cccc(-c3cccc(CNCC[C@H]4CN(c5ccc6c(n5)NC(=O)CO6)C(=O)O4)c3)c2)CCC1 [Example 71, 1-[3′-({2-[(S)-2-oxo-3-(3-oxo-3,4-dihydro-2H-pyrido[3,2-b][1,4]oxazin-6-yl)-oxazolidin-5-yl]-ethylamino}-methyl)-biphenyl-3-yloxymethyl]-cyclobutanecarbonitrile] | 8 µg/mL (≈ 14.5 µM) | 1 µg/mL (≈ 1.81 µM) | 0.25 µg/mL (≈ 0.452 µM) | 1 µg/mL (≈ 1.81 µM) | > 8 µg/mL
18 | COc1cccc(-c2cncc(CNCC[C@@H]3CN(c4ccc5c(c4)NC(=O)CS5)C(=O)O3)c2)c1 [Example 72, 6-[(R)-5-(2-{[5-(3-methoxy-phenyl)-pyridin-3-ylmethyl]-amino}-ethyl)-2-oxo-oxazolidin-3-yl]-4H-benzo[1,4]thiazin-3-one] | 4 µg/mL (≈ 8.15 µM) | 1 µg/mL (≈ 2.04 µM) | 0.063 µg/mL (≈ 0.128 µM) | 0.5 µg/mL (≈ 1.02 µM) | 1 µg/mL (≈ 2.04 µM)
19 | N#Cc1ncccc1-c1cccc(CNCC[C@H]2CN(c3ccc4c(n3)NC(=O)CO4)C(=O)O2)c1 [Example 73, 3-[3-({2-[(S)-2-oxo-3-(3-oxo-3,4-dihydro-2H-pyrido[3,2-b][1,4]oxazin-6-yl)-oxazolidin-5-yl]-ethylamino}-methyl)-phenyl]-pyridine-2-carbonitrile] | 16 µg/mL (≈ 34 µM) | 2 µg/mL (≈ 4.25 µM) | ≤ 0.063 µg/mL | 0.5 µg/mL (≈ 1.06 µM) | 1 µg/mL (≈ 2.13 µM)
20 | COc1cccc(-c2cccc(CNCCc3nn(-c4ccc5c(n4)NC(=O)CO5)c(=O)o3)c2O)n1 [Example 74, 6-(5-{2-[2-hydroxy-3-(6-methoxy-pyridin-2-yl)-benzylamino]-ethyl}-2-oxo-[1,3,4]oxadiazol-3-yl)-4H-pyrido[3,2-b][1,4]oxazin-3-one] | 0.5 µg/mL (≈ 1.02 µM) | 0.063 µg/mL (≈ 0.128 µM) | ≤ 0.016 µg/mL | 0.125 µg/mL (≈ 0.255 µM) | 0.25 µg/mL (≈ 0.51 µM)
21 | COc1cc(-c2cccc(CNCC[C@H]3CN(c4ccc5c(n4)NC(=O)CO5)C(=O)O3)c2)ccc1C#N [Example 75, 3-methoxy-3′-({2-[(S)-2-oxo-3-(3-oxo-3,4-dihydro-2H-pyrido[3,2-b][1,4]oxazin-6-yl)-oxazolidin-5-yl]-ethylamino}-methyl)-biphenyl-4-carbonitrile] | 8 µg/mL (≈ 16 µM) | 0.5 µg/mL (≈ 1 µM) | ≤ 0.063 µg/mL | 0.5 µg/mL (≈ 1 µM) | 1 µg/mL (≈ 2 µM)
